Results published in publication PMC8370248, “Key Metabolic Enzymes Involved in Remdesivir Activation in Human Lung Cells” (Antimicrobial Agents and Chemotherapy, 2021).
“Also recorded” adds a separate entry of the source. Counter-ions that a name gives are not always drawn.

Experiments:
CES1b = target: T1, CES1b (Homo sapiens, UniProt P23141); test: CES1b-catalyzed hydrolysis of RDV and control (substrate disappearance, LC-MS); type: in vitro ADME; settings: 1 μM substrate, CES 1.5 mg/ml, pH 7.4, 37°C
T1 construct: purchased Corning Incorporated (Corning, NY); host or cells: baculovirus-infected insect cells (microsomal fraction, Supersomes)
T1 sequence (P23141 18-567): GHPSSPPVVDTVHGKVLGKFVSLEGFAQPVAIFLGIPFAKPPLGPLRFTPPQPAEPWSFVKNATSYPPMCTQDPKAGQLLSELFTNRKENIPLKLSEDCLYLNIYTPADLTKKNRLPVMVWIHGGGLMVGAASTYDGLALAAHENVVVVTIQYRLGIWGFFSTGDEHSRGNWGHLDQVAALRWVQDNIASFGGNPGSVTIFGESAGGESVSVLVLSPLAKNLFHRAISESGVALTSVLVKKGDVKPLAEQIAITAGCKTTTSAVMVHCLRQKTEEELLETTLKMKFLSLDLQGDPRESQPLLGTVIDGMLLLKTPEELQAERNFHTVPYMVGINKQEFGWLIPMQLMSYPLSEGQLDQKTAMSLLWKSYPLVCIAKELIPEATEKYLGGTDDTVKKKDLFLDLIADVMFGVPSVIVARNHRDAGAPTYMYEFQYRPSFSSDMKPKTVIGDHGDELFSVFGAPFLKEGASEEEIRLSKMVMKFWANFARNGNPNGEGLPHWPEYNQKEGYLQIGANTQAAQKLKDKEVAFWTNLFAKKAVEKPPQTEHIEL
Experimental: (§1) The catalytic activity of carboxylesterase 1b (CES1b), carboxylesterase 1c (CES1c), CES2, and CatA toward RDV hydrolysis was measured using protein-enriched subcellular fraction (CES isozymes) or recombinant proteins (CatA). The reaction rates were determined by monitoring the disappearance of RDV using a liquid chromatography-mass spectrometry (LC-MS) method.
(§2) RDV or positive-control substrates (oseltamivir for CES1 or procaine for CES2) were incubated with individual Supersome preparations (final CES concentration, 1.5 mg/ml) in 0.1 M potassium phosphate buffer (pH 7.4) at 37°C. Substrates were added to a final concentration of 1 μM to initiate the reaction. The final incubation volume was 250 μl. Aliquots were removed after incubation for 0, 10, 30, 60, and 120 min. The reactions were stopped by the addition of the quench solution containing the LC-MS internal standard (IS) (labetalol). Following protein precipitation and centrifugation, 150 μl of supernatant was dried down and reconstituted with 250 μl water. All samples were analyzed by an LC-MS, and the analyte/internal standard peak area ratio (PAR) values were used for quantification. Disappearance of RDV or positive-control compounds was monitored over the incubation time period. Three experiments were conducted with two replicates in each experiment, and data are reported as averages from the three experiments.
(§3) In all studies apart from those with CES1 and CatA with enzyme inhibitors, samples (10-μl aliquots) were injected with a Thermo Scientific autosampler. The LC instrumentation consisted of a Thermo Scientific Dionex UltiMate 3000 RS pump, and the LC column was a Waters Acquity UPLC BEH C18 (1.7 μm particle size, 2.1 by 50 mm). Mobile phases A and B were water 99.9% (vol/vol) containing 0.1% (vol/vol) formic acid, and acetonitrile 99.9% (vol/vol) containing 0.1% (vol/vol) formic acid, respectively, pumped at 0.2 ml/minute. Elution was achieved by a series of linear gradients over 2.33 min followed by reequilibration for 2.57 min. The MS instrument was a Thermo Q Exactive Hybrid Quadrupole-Orbitrap operating in positive or negative ionization mode as appropriate. This was calibrated on a weekly basis, and data were processed with GMSU 8.4.66 software by Gubbs Inc. (Alpharetta, GA). Mass tolerance of 5 ppm was used.

CES1c = target: T2, CES1c (Homo sapiens, UniProt P23141); test: CES1c-catalyzed hydrolysis of RDV and control (substrate disappearance, LC-MS); type: in vitro ADME; settings: 1 μM substrate, CES 1.5 mg/ml, pH 7.4, 37°C
T2 construct: purchased Corning Incorporated (Corning, NY); host or cells: baculovirus-infected insect cells (microsomal fraction, Supersomes)
T2 sequence (P23141 18-566 isoform P23141-3 limits assumed): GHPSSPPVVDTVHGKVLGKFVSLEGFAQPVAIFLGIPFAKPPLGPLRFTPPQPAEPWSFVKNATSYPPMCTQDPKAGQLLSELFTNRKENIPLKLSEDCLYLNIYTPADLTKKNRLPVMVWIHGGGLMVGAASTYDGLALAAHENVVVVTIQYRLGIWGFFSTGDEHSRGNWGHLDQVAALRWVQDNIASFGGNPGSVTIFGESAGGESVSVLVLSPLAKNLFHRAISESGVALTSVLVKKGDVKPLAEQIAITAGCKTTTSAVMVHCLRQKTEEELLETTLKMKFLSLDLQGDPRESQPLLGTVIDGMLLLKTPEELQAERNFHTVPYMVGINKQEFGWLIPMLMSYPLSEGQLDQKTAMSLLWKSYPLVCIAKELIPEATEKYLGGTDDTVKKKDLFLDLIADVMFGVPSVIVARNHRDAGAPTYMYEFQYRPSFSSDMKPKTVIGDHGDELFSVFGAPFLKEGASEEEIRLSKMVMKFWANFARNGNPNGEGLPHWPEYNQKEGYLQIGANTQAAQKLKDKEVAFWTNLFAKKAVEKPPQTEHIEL
Experimental: as §1, §2, §3

CES2 = target: T3, CES2 (Homo sapiens, UniProt O00748); test: CES2-catalyzed hydrolysis of RDV and control (substrate disappearance, LC-MS); type: in vitro ADME; settings: CES 1.5 mg/ml, pH 7.4, 37°C
T3 construct: purchased Corning Incorporated (Corning, NY); host or cells: baculovirus-infected insect cells (microsomal fraction, Supersomes)
T3 sequence (O00748 27-559): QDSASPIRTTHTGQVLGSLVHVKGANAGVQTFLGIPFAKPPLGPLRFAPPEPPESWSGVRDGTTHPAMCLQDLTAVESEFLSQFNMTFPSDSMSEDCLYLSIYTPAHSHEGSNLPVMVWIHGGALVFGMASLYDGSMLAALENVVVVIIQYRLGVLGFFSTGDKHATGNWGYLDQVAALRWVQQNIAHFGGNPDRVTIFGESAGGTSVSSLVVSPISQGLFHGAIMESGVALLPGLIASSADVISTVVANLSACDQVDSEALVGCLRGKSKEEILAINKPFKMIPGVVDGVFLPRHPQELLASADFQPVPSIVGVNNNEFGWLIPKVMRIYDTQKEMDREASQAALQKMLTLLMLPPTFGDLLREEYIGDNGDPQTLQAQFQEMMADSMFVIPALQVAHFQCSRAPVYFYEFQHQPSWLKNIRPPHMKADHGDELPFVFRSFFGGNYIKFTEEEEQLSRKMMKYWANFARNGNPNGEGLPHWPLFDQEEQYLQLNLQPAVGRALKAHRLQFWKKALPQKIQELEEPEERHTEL
Experimental: as §1, §2, §3

HINT1 = target: T4, HINT1 (Homo sapiens, UniProt P49773); test: HINT1-catalyzed hydrolysis of RDV MetX and positive control; type: in vitro ADME
T4 construct: purchased Abcam (Cambridge, MA)
T4 sequence (P49773 whole entry): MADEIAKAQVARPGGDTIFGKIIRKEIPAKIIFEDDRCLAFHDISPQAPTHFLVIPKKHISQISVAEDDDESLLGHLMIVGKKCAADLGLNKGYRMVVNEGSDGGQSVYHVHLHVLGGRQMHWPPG

[1] = Chemical hydrolysis of MetX under acidic conditions mimicking lysosomal lumen; type: physicochemical
Experimental: P-N bond cleavage of RDV MetX was evaluated under acidic pH, mimicking intracellular lysosomal conditions.
To test the chemical stability of RDV MetX under acidic conditions (found within the lysosomal lumen) or neutral conditions (e.g., found in the cytosol of cells), 1 μM compound was incubated in a 250-μl reaction mixture consisting of 100 mM sodium acetate (pH 4.5) or 100 mM HEPES (pH 7.5). […] For reactions carried out at pH 4.5, the pH of the reaction aliquots was raised to pH 9 to 10 by addition of 7.5 μl of 0.2 M NaOH prior to addition of the quenching solution. Following protein precipitation and centrifugation, 150 μl of supernatants were dried down and reconstituted with 250 μl water. All samples were analyzed by LC-MS, and PAR values were used for quantification. Disappearance of MetX was monitored over the incubation time period. Three experiments were conducted with two replicates for each experiment, and data are reported as averages from three experiments.

CatA = target: T5, CatA (Homo sapiens, UniProt P10619); test: CatA-catalyzed hydrolysis of RDV and control (substrate disappearance, LC-MS)
T5 sequence (P10619 29-326 limits assumed): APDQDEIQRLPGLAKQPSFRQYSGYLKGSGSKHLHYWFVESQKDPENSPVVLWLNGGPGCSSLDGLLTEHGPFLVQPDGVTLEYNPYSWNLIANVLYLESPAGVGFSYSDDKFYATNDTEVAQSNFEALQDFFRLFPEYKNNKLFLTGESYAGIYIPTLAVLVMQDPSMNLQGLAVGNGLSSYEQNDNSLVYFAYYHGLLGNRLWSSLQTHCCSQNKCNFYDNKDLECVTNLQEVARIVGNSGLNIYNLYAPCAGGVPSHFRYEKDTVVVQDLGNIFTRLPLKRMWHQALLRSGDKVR
T5 sequence (P10619 327-480 limits assumed): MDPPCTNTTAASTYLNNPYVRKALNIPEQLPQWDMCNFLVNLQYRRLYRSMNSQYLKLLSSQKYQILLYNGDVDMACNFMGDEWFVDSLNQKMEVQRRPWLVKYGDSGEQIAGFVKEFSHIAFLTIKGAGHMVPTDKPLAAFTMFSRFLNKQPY
Experimental: as §1
Following protein precipitation and centrifugation, 150 μl of supernatant was dried down and reconstituted with 250 μl water. […] Three experiments were conducted with two replicates in each experiment, and data are reported as averages from the three experiments.
as §3

[2] = 1 μM compound, 100 mM sodium acetate pH 4.5

CCOC(=O)C1=C[C@@H](OC(CC)CC)[C@H](NC(C)=O)[C@@H](N)C1 [Oseltamivir]
Activity for amidate ester cleavage, CES1b (CES1b): 2.3 ± 0.1 × 10^−2 nmol/min/mg | half-life at 1 μM (CES1b; human, CES1b Supersomes (protein-enriched subcellular fraction), read-out: t1/2, CES1b (converted)): 20 min | Activity for amidate ester cleavage, CES1c (CES1c): 1.5 ± 0.2 × 10^−2 nmol/min/mg | half-life at 1 μM (CES1c; human, CES1c Supersomes (protein-enriched subcellular fraction), read-out: t1/2, CES1c (converted)): 31 min

CCN(CC)CCOC(=O)c1ccc(N)cc1 [Procaine]
Activity for amidate ester cleavage, CES2 (CES2; 1 μM substrate): 4.4 ± 0.8 × 10^−3 nmol/min/mg | half-life at 1 μM (CES2; human, CES2 Supersomes (protein-enriched subcellular fraction), pH 7.4, 1 μM substrate, read-out: t1/2, CES2 (converted)): 110 min

C[C@H](N[P@@](=O)(O)OC[C@H]1O[C@@](C#N)(c2ccc3c(N)ncnn23)[C@H](O)[C@@H]1O)C(=O)O [RDV MetX]
HINT1 hydrolysis (HINT1; 1 μM substrate, 250 nM HINT1, pH 7.2, 37°C): 32 ± 12 nmol/min/mg | half-life at 1 μM (HINT1; human, recombinant HINT1, 1 μM substrate, 250 nM HINT1, pH 7.2, 37°C, read-out: t1/2, HINT1 hydrolysis (converted)): 5.5 min | HINT1 metabolism rate relative to GS-6620 MetX (HINT1; times faster than known substrate GS-6620 MetX): 6 times | Lysosomal hydrolysis at pH 4.5 [1, 2]: 0 ± 0 nmol/min | P-N bond cleavage under acidic pH ([1]; acidic pH mimicking intracellular lysosomal conditions): no RDV MetX hydrolysis product was detectable; also recorded: completely resistant to acid hydrolysis | half-life at 1 μM ([1]; buffer, pH 4.5): > 167 h

CC(C)OC(=O)[C@H](C)N[P@](=O)(CO[C@H](C)Cn1cnc2c(N)ncnc21)Oc1ccccc1 [TAF (GS-7340), tenofovir alafenamide fumarate]
Activity for amidate ester cleavage, CatA (CatA; 1 μM substrate, 5 nM CatA, pH 6.5, 37°C): 254 ± 154 nmol/min/mg | half-life at 1 μM (CatA; human, pH 6.5): 13 min

CC(Cn1cnc2c(N)ncnc21)OCP(=O)(O)NC(C)C(=O)O (stereo not shown) [TAF MetX]
Lysosomal hydrolysis at pH 4.5 [1, 2]: 1.2 ± 0.6 × 10^−3 nmol/min | t1/2, lysosomal hydrolysis at pH 4.5 [1, 2]: 16 ± 7 min
